This is an account of results in patent publication EP3800188A1, “SUBSTITUTED PYRAZOLOPYRIMIDINES AS IRAK4 INHIBITORS” (Bayer AG, priority 2019, dated 2021).

Series [1] is described as follows: Metabolic stability in human liver microsomes. The settings on record: 1 µM compound; for CLblood, human microsomes: hepatic in vivo blood clearance calculated with well stirred liver model, '(stable)' given beside < 0.01; for Fmax, human microsomes: maximal oral bioavailability calculated with well stirred liver model, 0.5 mg/mL protein, '(stable)' given beside 100.

For another series, the target named is T1, human IRAK4 (Homo sapiens, UniProt Q9NWZ3).
T1 construct: GST (N); made in house; host or cells: baculovirus-infected Hi5 (BTI-TN-5B1-4) insect cells
T1 sequence (Q9NWZ3 1-460): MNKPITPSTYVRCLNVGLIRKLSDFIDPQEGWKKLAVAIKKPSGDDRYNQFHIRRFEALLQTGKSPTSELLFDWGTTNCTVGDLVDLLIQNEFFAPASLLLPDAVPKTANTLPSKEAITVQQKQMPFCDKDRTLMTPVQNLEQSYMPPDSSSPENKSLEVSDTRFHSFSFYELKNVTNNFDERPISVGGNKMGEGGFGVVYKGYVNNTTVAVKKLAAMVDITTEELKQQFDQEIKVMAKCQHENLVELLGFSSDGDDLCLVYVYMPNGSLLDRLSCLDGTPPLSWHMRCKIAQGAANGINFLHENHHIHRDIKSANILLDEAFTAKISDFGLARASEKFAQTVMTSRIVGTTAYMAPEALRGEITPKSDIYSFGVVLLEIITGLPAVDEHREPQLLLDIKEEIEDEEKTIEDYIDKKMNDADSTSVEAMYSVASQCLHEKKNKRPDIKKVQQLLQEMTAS
The series is described as follows: Human IRAK4 kinase activity inhibition assay (IRAK4 TR-FRET assay). The format is biochemical. The following applies: 1 mM ATP, GST-human IRAK4, average or median values. The gist of the method:
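GST-IRAK4 from insect cells (about 0.2 nM, linear range) was preincubated 15 min with compound (11 concentrations, 20 µM–0.073 nM) in HEPES pH 7.5 with MgCl2 and DTT before kinase reaction on a biotinylated peptide. Phosphopeptide was detected by TR-FRET (Eu anti-mouse-IgG/anti-phosphoserine/streptavidin-XL665, 1 h at 22°C) as the 665/620 nm ratio, normalized to no-compound and no-enzyme controls.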

As for `CN1CC[C@H](Nc2nc(N3C[C@@H](O)[C@H](O)C3)c3cnn(-c4cccc(C(F)(F)F)c4)c3n2)C1` [Example I-31, (3R,4R)-1-(6-{[(3S)-1-methylpyrrolidin-3-yl]amino}-1-[3-(trifluoromethyl)phenyl]-1H-pyrazolo[3,4-d]pyrimidin-4-yl)pyrrolidine-3,4-diol], in series [1], the “CLblood, human microsomes” value is given as < 0.01 (stable) L/h/kg and the “Fmax, human microsomes” value is 100 (stable) %. On human IRAK4, this compound showed an IC50 of 12.6 nM.

`CC(C)(N)C1CN(c2nc(NC3CCS(=O)(=O)CC3)nc3c2cnn3-c2cccc(C(F)(F)F)c2)C1` [Example I-45, 4-[3-(2-aminopropan-2-yl)azetidin-1-yl]-N-(1,1-dioxidotetrahydro-2H-thiopyran-4-yl)-1-[3-(trifluoromethyl)phenyl]-1H-pyrazolo[3,4-d]pyrimidin-6-amine]: in series [1], the “CLblood, human microsomes” value was 0.05 L/h/kg and the “Fmax, human microsomes” value is reported as 96%. This compound also came in with an IC50 against human IRAK4 of 5.1 nM.

For the compound `CC(C)(N)C1CCN(c2nc(NC3CCS(=O)(=O)CC3)nc3c2cnn3-c2cccc(C(F)(F)F)c2)CC1` [Example I-46, 4-[4-(2-aminopropan-2-yl)piperidin-1-yl]-N-(1,1-dioxidotetrahydro-2H-thiopyran-4-yl)-1-[3-(trifluoromethyl)phenyl]-1H-pyrazolo[3,4-d]pyrimidin-6-amine], in series [1], the “CLblood, human microsomes” value was 0.25 L/h/kg and the “Fmax, human microsomes” value is 81%. In addition, the IC50 against human IRAK4 stood at 1.4 nM.

For `CC(C)(N)C1CCN(c2nc(N[C@@H]3CNC(=O)C3)nc3c2cnn3-c2cccc(C(F)(F)F)c2)CC1` [Example I-47, (4S)-4-({4-[4-(2-aminopropan-2-yl)piperidin-1-yl]-1-[3-(trifluoromethyl)phenyl]-1H-pyrazolo[3,4-d]pyrimidin-6-yl}amino)pyrrolidin-2-one], in series [1], the “CLblood, human microsomes” value is 0.17 L/h/kg and the “Fmax, human microsomes” value was 87%. The same compound came in with an IC50 at human IRAK4 of 0.861 nM.

In the case of `NC1(C2CCN(c3nc(N[C@@H]4CNC(=O)C4)nc4c3cnn4-c3cccc(C(F)(F)F)c3)CC2)CC1` [Example I-48, (4S)-4-({4-[4-(1-aminocyclopropyl)piperidin-1-yl]-1-[3-(trifluoromethyl)phenyl]-1H-pyrazolo[3,4-d]pyrimidin-6-yl}amino)pyrrolidin-2-one], in series [1], the “CLblood, human microsomes” value was < 0.01 (stable) L/h/kg and the “Fmax, human microsomes” value is given as 100 (stable) %. On human IRAK4, the IC50 was 1.12 nM.

As for `CC(C)(O)CC1CN(c2nc(N[C@@H]3CNC(=O)C3)nc3c2cnn3-c2cccc(C(F)(F)F)c2)C1` [Example I-49, (4S)-4-({4-[3-(2-hydroxy-2-methylpropyl)azetidin-1-yl]-1-[3-(trifluoromethyl)phenyl]-1H-pyrazolo[3,4-d]pyrimidin-6-yl}amino)pyrrolidin-2-one], in series [1], the “CLblood, human microsomes” value was 0.13 L/h/kg and the “Fmax, human microsomes” value was 90%. The IC50 against human IRAK4 was 3.85 nM.

Turning to `O=C1C[C@H](Nc2nc(N3CC(CC(=O)N4CCOCC4)C3)c3cnn(-c4cccc(C(F)(F)F)c4)c3n2)CN1` [Example I-51, (4S)-4-[(4-{3-[2-(morpholin-4-yl)-2-oxoethyl]azetidin-1-yl}-1-[3-(trifluoromethyl)phenyl]-1H-pyrazolo[3,4-d]pyrimidin-6-yl)amino]pyrrolidin-2-one], in series [1], the “CLblood, human microsomes” value was 0.25 L/h/kg and the “Fmax, human microsomes” value was 81%. Moreover, the IC50 on human IRAK4 amounted to 2.5 nM.

Turning to `C[C@]1(N)C[C@@H](Nc2nc(N3CCOCC3)c3cnn(-c4cccc(C(F)(F)F)c4)c3n2)C1` [Example I-58, cis-1-methyl-N^3-{4-(morpholin-4-yl)-1-[3-(trifluoromethyl)phenyl]-1H-pyrazolo[3,4-d]pyrimidin-6-yl}cyclobutane-1,3-diamine], in series [1], the “CLblood, human microsomes” value is given as < 0.01 (stable) L/h/kg and the “Fmax, human microsomes” value is reported as 100 (stable) %. Also, at human IRAK4, inhibition was half-maximal at 23 nM (IC50).

As to `CC1(N2CCOCC2)CN(c2nc(N[C@H]3C[C@H](S(C)(=O)=O)C3)nc3c2cnn3-c2cccc(C(F)(F)F)c2)C1` [Example I-59, 4-[3-methyl-3-(morpholin-4-yl)azetidin-1-yl]-N-[trans-3-(methylsulfonyl)cyclobutyl]-1-[3-(trifluoromethyl)phenyl]-1H-pyrazolo[3,4-d]pyrimidin-6-amine], in series [1], the “CLblood, human microsomes” value was 0.34 L/h/kg and the “Fmax, human microsomes” value is 74%. The compound also displayed an IC50 at human IRAK4 of 3.63 nM.

`O=S1(=O)CCC(Nc2nc(N3CC(CN4CCOCC4)C3)c3cnn(-c4cccc(C(F)(F)F)c4)c3n2)CC1` [Example I-60, N-(1,1-dioxidotetrahydro-2H-thiopyran-4-yl)-4-[3-(morpholin-4-ylmethyl)azetidin-1-yl]-1-[3-(trifluoromethyl)phenyl]-1H-pyrazolo[3,4-d]pyrimidin-6-amine]: in series [1], the “CLblood, human microsomes” value is given as 0.37 L/h/kg and the “Fmax, human microsomes” value is on record as 72%. For the same compound, the IC50 on human IRAK4 is 34.2 nM.

For `NC1(C2CCN(c3nc(NC4CCS(=O)(=O)CC4)nc4c3cnn4-c3cccc(C(F)(F)F)c3)CC2)CC1` [Example I-62, 4-[4-(1-aminocyclopropyl)piperidin-1-yl]-N-(1,1-dioxidotetrahydro-2H-thiopyran-4-yl)-1-[3-(trifluoromethyl)phenyl]-1H-pyrazolo[3,4-d]pyrimidin-6-amine], in series [1], the “CLblood, human microsomes” value is on record as < 0.01 (stable) L/h/kg and the “Fmax, human microsomes” value is listed as 100 (stable) %. Further, inhibition at human IRAK4 was half-maximal at 2.57 nM (IC50).

With `CC(C)(O)C1CCN(c2nc(N[C@H]3CN4CCC3CC4)nc3c2cnn3-c2cccc(C(F)(F)F)c2)CC1` [Example I-64-1, 2-(1-{6-[(3R)-1-azabicyclo[2.2.2]octan-3-ylamino]-1-[3-(trifluoromethyl)phenyl]-1H-pyrazolo[3,4-d]pyrimidin-4-yl}piperidin-4-yl)propan-2-ol], in series [1], the “CLblood, human microsomes” value is on record as 0.32 L/h/kg and the “Fmax, human microsomes” value is given as 76%. 8.58 nM corresponded to half-maximal inhibition against human IRAK4 (IC50).

As to `CC(C)(O)CC1CN(c2nc(N[C@H]3C[C@H](S(C)(=O)=O)C3)nc3c2cnn3-c2cccc(C(F)(F)F)c2)C1` [Example I-67, 2-methyl-1-[1-(6-{[trans-3-(methylsulfonyl)cyclobutyl]amino}-1-[3-(trifluoromethyl)-phenyl]-1H-pyrazolo[3,4-d]pyrimidin-4-yl)azetidin-3-yl]propan-2-ol], in series [1], the “CLblood, human microsomes” value was 0.24 L/h/kg and the “Fmax, human microsomes” value is 82%. On human IRAK4, this compound yielded an IC50 of 5.33 nM.

With `CC(C)(O)CC1CN(c2nc(NC3CN(S(C)(=O)=O)C3)nc3c2cnn3-c2cccc(C(F)(F)F)c2)C1` [Example I-68, 2-methyl-1-[1-(6-{[1-(methylsulfonyl)azetidin-3-yl]amino}-1-[3-(trifluoromethyl)phenyl]-1H-pyrazolo[3,4-d]pyrimidin-4-yl)azetidin-3-yl]propan-2-ol], in series [1], the “CLblood, human microsomes” value is on record as 0.02 L/h/kg and the “Fmax, human microsomes” value was 99%. For the same compound, half-maximal inhibition on human IRAK4 (IC50) required 23 nM.

With `O[C@H]1C[C@H](Nc2nc(N3CC(N4CCOCC4)C3)c3cnn(-c4cccc(C(F)(F)F)c4)c3n2)C1` [Example I-74, trans-3-({4-[3-(morpholin-4-yl)azetidin-1-yl]-1-[3-(trifluoromethyl)phenyl]-1H-pyrazolo-[3,4-d]pyrimidin-6-yl}amino)cyclobutanol], in series [1], the “CLblood, human microsomes” value is reported as 0.11 L/h/kg and the “Fmax, human microsomes” value is reported as 91%. In addition, at human IRAK4, inhibition was half-maximal at 4.83 nM (IC50).

As to `CC1(N2CCOCC2)CN(c2nc(N[C@H]3C[C@@H](O)C3)nc3c2cnn3-c2cccc(C(F)(F)F)c2)C1` [Example I-76, cis-3-({4-[3-methyl-3-(morpholin-4-yl)azetidin-1-yl]-1-[3-(trifluoromethyl)phenyl]-1H-pyrazolo[3,4-d]pyrimidin-6-yl}amino)cyclobutanol], in series [1], the “CLblood, human microsomes” value is 0.30 L/h/kg and the “Fmax, human microsomes” value is on record as 77%. Moreover, the IC50 against human IRAK4 worked out at 9.61 nM.

Turning to `C[C@]1(O)C[C@H](Nc2nc(N3CC(N4CCOCC4)C3)c3cnn(-c4cccc(C(F)(F)F)c4)c3n2)C1` [Example I-77, trans-1-methyl-3-({4-[3-(morpholin-4-yl)azetidin-1-yl]-1-[3-(trifluoromethyl)phenyl]-1H-pyrazolo[3,4-d]pyrimidin-6-yl}amino)cyclobutanol], in series [1], the “CLblood, human microsomes” value is 0.36 L/h/kg and the “Fmax, human microsomes” value is 72%. This compound also registered an IC50 at human IRAK4 of 4.8 nM.

For `C[C@]1(O)C[C@@H](Nc2nc(N3CC(N4CCOCC4)C3)c3cnn(-c4cccc(C(F)(F)F)c4)c3n2)C1` [Example I-78, cis-1-methyl-3-({4-[3-(morpholin-4-yl)azetidin-1-yl]-1-[3-(trifluoromethyl)phenyl]-1H-pyrazolo[3,4-d]pyrimidin-6-yl}amino)cyclobutanol], in series [1], the “CLblood, human microsomes” value is given as 0.32 L/h/kg and the “Fmax, human microsomes” value is on record as 76%. On human IRAK4, it took 5.62 nM to reach half-maximal inhibition (IC50).
